Literature values as cited in patent publication US9555015B2, “Antimicrobial compositions and methods for their use” (Dermcare-Vet Pty Ltd, priority 2004, dated 2017).

Columns and labels:
[1] = especially in concentrations as high as 2%, particularly when the tympanic membrane has been ruptured
[2] = 0.2% chlorhexidine, external ear, ruptured tympanic membranes
[3] = 0.02% chlorhexidine compositions, bladder instillation

[H]/N=C(\N/C(=N/[H])NCCCCCCNC(=N)NC(=N)Nc1ccc(Cl)cc1)Nc1ccc(Cl)cc1 [chlorhexidine]
ototoxicity [1]: ototoxic | ototoxic effects [2]: no ototoxic effects | bladder adverse effect [3]: chemical cystitis resulting in haematuria
